Data taken from US20230286973A1, “PROTEIN SECRETION INHIBITORS” (KEZAR LIFE SCIENCES, priority 2020, published 2023).

Tests used:
[1] = test system: PD1-ss+10aa/Gaussia Luciferase; test: Dox-Induced PD1-ss-Gluc Assay; assay type: cell-based; conditions: 24 hr Dox induction; 293FRT/TO cells; read-out: 24 hr Dox Inducible PD1ssGluc 293FRT/TO: Mean IC50
Method in brief: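 Doxycycline-induced expression of a PD1-ss+10aa/Gaussia luciferase reporter is measured in stable Flp-In 293 T-REx cells. Compound dilutions containing doxycycline are added one day after plating and incubated at 37 °C, 5% CO2. Values for unassigned stereocentres refer to stereoisomer mixtures.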

[2] = test system: TNFα-FL/Gaussia Luciferase; test: Dox Induced TNFα-FL-Gluc Assay; assay type: cell-based; conditions: for IC50: 24 hr Dox induction, 293FRT/TO cells, read-out: 24 hr Dox Inducible TNFaFLGluc 293FRT/TO: Mean IC50; for 24 hr Dox Inducible TNFaFLGluc 293FRT/TO: TNF/PD1: ratio of TNFaFLGluc IC50 to PD1ssGluc IC50
Description: (§1) Flp-In 293 T-REx™ cells were transfected with pcDNA™5/FRT/TO plasmid inserted with cDNA encoding Gaussia Luciferase fused to the 3′ end of cDNA encoding full length TNFα (amino acids 1-233). Transfected cells were selected for resistance to the selectable markers Hygromycin and Blasticidin to create a stable cell line that contained the TNFα-FL/Gaussia Luciferase cDNA insert whose expression was regulated under the T-REx™ system. The day before assay, cells were trypsinized and plated in 384-well tissue culture plates. The next day, compound dilutions in DMSO/media containing doxycycline were added to the wells and incubated at 37° C., 5% CO2.
(§2) For chemical structures that include one or more stereoisomers, but are illustrated without indicating stereochemistry, the assay data refers to a mixture of stereoisomers.

[3] = test system: HER3-ss+4aa/Gaussia Luciferase; test: Dox-Induced Her3-ss-Gluc Assay; assay type: cell-based; conditions: 24 hr Dox induction; 293FRT/TO cells; read-out: 24 hr Dox Inducible Her3(ss + 4)Gluc 293FRT/TO: Mean IC50
Description: as §1, with “HER3 signal sequence plus 4 amino” for “full length TNFα (amino”, “(N-[…]-C) (SEQ ID NO: 2).” for “1-233).”, “HER3-ss+4aa/Gaussia” for “TNFα-FL/Gaussia”
as §2

[4] = test system: IL-2-FL/Gaussia Luciferase; test: Dox Induced IL2-FL-Gluc Assay; assay type: cell-based; conditions: for IC50: 24 hr Dox induction, 293FRT/TO cells, read-out: 24 hr Dox Inducible IL2FLGluc 293FRT/TO: Mean IC50; for 24 hr Dox Inducible IL2FLGluc 293FRT/TO: IL2/PD1: ratio of IL2FLGluc IC50 to PD1ssGluc IC50
Method in brief: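 A hygromycin- and blasticidin-resistant 293 T-REx clone carrying inducible IL-2–Gaussia luciferase (full-length IL-2, residues 1-153) serves as the cell system. After overnight plating, the cells get test compounds together with doxycycline in DMSO/media and are incubated at 37° C, 5% CO2.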

[5] = test system: multiple myeloma cell line NCI-H929; test: H929 Cell Viability Assay; assay type: cell-based, human; conditions: Homo sapiens, NCI-H929, 48 h, NCI-H929 cells, Celltiter-Glo
Method in brief: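 A 48-hour compound treatment of cells in 10% FBS RPMI medium was followed by luciferase-based viability quantification.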

[6] = test system: multiple myeloma cell line U266B1; test: U266 Cell Viability Assay; assay type: cell-based, human; conditions: Homo sapiens, U-266, 48 h, U266B1 cells, Celltiter-Glo
Method in brief: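 After growth in serum-supplemented RPMI 1640, cells received serially diluted compound in DMSO/media and were kept 48 hours before a CellTiter-Glo luminescence readout.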

[7] = Liver Microsome Stability Assay (rat); conditions: rat liver microsomes, with NADPH, 1.0 uM compound
Description: (§3) Stability of a compound was assessed in the presence of liver microsomes from various sources—mouse, rat, monkey and human liver microsomes. 1.0 uM compound, 0.4% DMSO in 0.1 M Potassium Phosphate with 1.0 mg/mL liver microsomes, were incubated at 37° C. with or without 1 mM NADPH. The samples were quenched at 0, and 30 minutes.

[8] = Liver Microsome Stability Assay (mouse); conditions: mouse liver microsomes, with NADPH, 1.0 uM compound
Description: as §3

[9] = Liver Microsome Stability Assay (human); conditions: human liver microsomes, with NADPH, 1.0 uM compound
Description: as §3

[10] = Liver Microsome Stability Assay (monkey); conditions: monkey liver microsomes, with NADPH, 1.0 uM compound
Description: as §3

| Compound | IC50 [1] | IC50 [2] | 24 hr Dox Inducible TNFaFLGluc 293FRT/TO: TNF/PD1 [2] | IC50 [3] | IC50 [4] | 24 hr Dox Inducible IL2FLGluc 293FRT/TO: IL2/PD1 [4] | EC50 [5] | EC50 [6] | Liver Microsome Stability (Multiple Species): Rat - % Remaining after 30 min w/NADPH [7] | Liver Microsome Stability (Multiple Species): Mouse - % Remaining after 30 min w/NADPH [8] | Liver Microsome Stability (Multiple Species): Human - % Remaining after 30 min w/NADPH [9] | Liver Microsome Stability (Multiple Species): Monkey - % Remaining after 30 min w/NADPH [10] |
| --- | --- | --- | --- | --- | --- | --- | --- | --- | --- | --- | --- | --- |
| O=C(Nc1nc([C@H]2CCCN2c2ccc(OC3COC3)cc2)cs1)c1cccn1Cc1ccncc1 [Compound A2, (R)-N-(4-(1-(4-(oxetan-3-yloxy)phenyl)pyrrolidin-2-yl)thiazol-2-yl)-1-(pyridin-4-ylmethyl)-1H-pyrrole-2-carboxamide] | 18.2 nM | 211 nM | 11.6 | 31.4 nM | 34 nM | 1.9 | 1340 nM | > 25 µM | 7.5% | 6.6% | 0.92% | 0.18% |
| O=C(Nc1nc([C@H]2CCCN2c2ccc(O[C@@H]3CCOC3)cc2)cs1)c1cccn1Cc1ccncc1 [Compound A3, 1-(pyridin-4-ylmethyl)-N-(4-((R)-1-(4-(((R)-tetrahydrofuran-3-yl)oxy)phenyl)pyrrolidin-2-yl)thiazol-2-yl)-1H-pyrrole-2-carboxamide] | 15.6 nM | 171 nM | 11 | 33.5 nM | 26 nM | 1.7 | 530 nM | > 25 µM | 20.1% | 9% | 2.33% | 0.62% |
| O=C(Nc1nc([C@H]2CCCN2c2ccc(O[C@H]3CCOC3)cc2)cs1)c1cccn1Cc1ccncc1 [Compound A4, 1-(pyridin-4-ylmethyl)-N-(4-((R)-1-(4-(((S)-tetrahydrofuran-3-yl)oxy)phenyl)pyrrolidin-2-yl)thiazol-2-yl)-1H-pyrrole-2-carboxamide] | 16 nM | 155 nM | 9.69 | 26.8 nM | 25.7 nM | 1.6 | 430 nM | > 25 µM | 15.4% | 9.36% | 4.21% | 0.36% |
| CC(C)Oc1ccc(N2CCC[C@@H]2c2csc(NC(=O)c3cccn3Cc3ccncc3)n2)cc1 [Compound A5, (R)-N-(4-(1-(4-isopropoxyphenyl)pyrrolidin-2-yl)thiazol-2-yl)-1-(pyridin-4-ylmethyl)-1H-pyrrole-2-carboxamide] | 14.7 nM | 87 nM | 5.92 | 25.8 nM | 22.7 nM | 1.5 | 448 nM | > 25 µM | 26.5% | 13% | 10.4% | 4.26% |
| CC(=O)N1CCC(Oc2ccc(N3CCC[C@@H]3c3csc(NC(=O)c4cccn4Cc4ccncc4)n3)cc2)CC1 [Compound A7, (R)-N-(4-(1-(4-((1-acetylpiperidin-4-yl)oxy)phenyl)pyrrolidin-2-yl)thiazol-2-yl)-1-(pyridin-4-ylmethyl)-1H-pyrrole-2-carboxamide] | 13.8 nM | 330 nM | 23.8 | 25.2 nM | 35.6 nM | 2.6 | 497 nM | > 25 µM | 5.67% | 39.9% | 4.64% | 3.56% |
| CN1CCC(Oc2ccc(N3CCC[C@@H]3c3csc(NC(=O)c4cccn4Cc4ccncc4)n3)cc2)CC1 [Compound A8, (R)-N-(4-(1-(4-((1-methylpiperidin-4-yl)oxy)phenyl)pyrrolidin-2-yl)thiazol-2-yl)-1-(pyridin-4-ylmethyl)-1H-pyrrole-2-carboxamide] | 293 nM | 13400 nM | 45.5 | 588 nM | 806 nM | 2.7 | 2000 nM | 2.94 µM | 11% | 3.14% | 3.14% | 11.3% |
| CNc1ccc(N2CCC[C@@H]2c2csc(NC(=O)c3cccn3Cc3ccncc3)n2)cc1 [Compound A15] | 34.2 nM | 875 nM | 25.6 | 72.5 nM | 97.1 nM | 2.8 | 767 nM | 7.35 µM | 17.7% | 10.5% | 5.24% | 1.86% |
| CN(C)c1ccc(N2CCC[C@@H]2c2csc(NC(=O)c3cccn3Cc3ccncc3)n2)cc1 [Compound A16, (R)-N-(4-(1-(4-(dimethylamino)phenyl)pyrrolidin-2-yl)thiazol-2-yl)-1-(pyridin-4-ylmethyl)-1H-pyrrole-2-carboxamide] | 5.06 nM | 127 nM | 25 | 8.37 nM | 10.6 nM | 2.1 | 119 nM | 2.14 µM | 0.15% | 0.26% | 0.34% | 0.17% |
| CNC(=O)c1ccc(N2CCC[C@@H]2c2csc(NC(=O)c3cccn3Cc3ccncc3)n2)cc1 [Compound A17, (R)-N-(4-(1-(4-(methylcarbamoyl)phenyl)pyrrolidin-2-yl)thiazol-2-yl)-1-(pyridin-4-ylmethyl)-1H-pyrrole-2-carboxamide] | 6.69 nM | 178 nM | 26.6 | 11.5 nM | 16.7 nM | 2.5 | 161 nM | > 25 µM | 0.38% | 2.94% | 0.32% | 0.22% |
